Experimental data as given in ChEMBL document CHEMBL1201862, “PubChem BioAssay data set” (2004).
Where a name gives a salt, the structure may show the parent alone.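 How tested: cells in 96-well plates exposed to compound for 48 hours at five concentrations. GI50: concentration for 50% inhibition of growth.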 The source made the active and inactive calls. Rule as the data show it: active = GI50 up to about 1.1 µM and inactive = higher.

What was measured:
Assay in all cases: NCI tumour cell line growth inhibition, 48 h
SK-MEL-2 = tested on: SK-MEL-2
MDA-N = tested on: MDA-N
KM12 = tested on: KM12
SK-OV-3 = tested on: SK-OV-3
DU-145 = tested on: DU-145
ACHN = tested on: ACHN
SF-295 = tested on: SF-295
RXF 393 = tested on: RXF 393
HOP-92 = tested on: HOP-92
CAKI-1 = tested on: CAKI-1
U-251 = tested on: U-251
PC-3 = tested on: PC-3
SF-539 = tested on: SF-539
UACC-257 = tested on: UACC-257
HT-29 = tested on: HT-29
SNB-19 = tested on: SNB-19
CCRF-CEM = tested on: CCRF-CEM
M14 = tested on: M14
UACC-62 = tested on: UACC-62
SW-620 = tested on: SW-620
HCC 2998 = tested on: HCC 2998
A549 = tested on: A549
OVCAR-5 = tested on: OVCAR-5
OVCAR-4 = tested on: OVCAR-4
SK-MEL-28 = tested on: SK-MEL-28
SR = tested on: SR
UO-31 = tested on: UO-31
A498 = tested on: A498
COLO 205 = tested on: COLO 205
MDA-MB-231 = tested on: MDA-MB-231
SF-268 = tested on: SF-268
SN12C = tested on: SN12C
NCI-H522 = tested on: NCI-H522
MOLT-4 = tested on: MOLT-4
NCI-H23 = tested on: NCI-H23
K562 = tested on: K562
RPMI-8226 = tested on: RPMI-8226
786-0 = tested on: 786-0
TK-10 = tested on: TK-10
MCF7 = tested on: MCF7
MDA-MB-435 = tested on: MDA-MB-435
NCI-H226 = tested on: NCI-H226
NCI-H460 = tested on: NCI-H460
NCI/ADR-RES = tested on: NCI/ADR-RES
Malme-3M = tested on: Malme-3M
HCT-15 = tested on: HCT-15
OVCAR-8 = tested on: OVCAR-8
HCT-116 = tested on: HCT-116
LOX IMVI = tested on: LOX IMVI
SK-MEL-5 = tested on: SK-MEL-5
IGROV-1 = tested on: IGROV-1
T47D = tested on: T47D
HOP-62 = tested on: HOP-62
HL-60 = tested on: HL-60
SNB-75 = tested on: SNB-75
EKVX = tested on: EKVX
OVCAR-3 = tested on: OVCAR-3

Nc1ccc(-c2nc3ccc(Cc4ccc5nc(-c6ccc(N)cc6)oc5c4)cc3o2)cc1
GI50 (SK-MEL-2): > 100 µM (inactive) | GI50 (MDA-N): > 100 µM (inactive) | GI50 (KM12): > 100 µM (inactive) | GI50 (SK-OV-3): > 100 µM (inactive) | GI50 (DU-145): > 100 µM (inactive) | GI50 (ACHN): > 100 µM (inactive) | GI50 (SF-295): > 100 µM (inactive) | GI50 (RXF 393): > 100 µM (inactive) | GI50 (HOP-92): 47.4 µM (inactive) | GI50 (CAKI-1): > 100 µM (inactive) | GI50 (U-251): > 100 µM (inactive) | GI50 (PC-3): > 100 µM (inactive) | GI50 (SF-539): > 100 µM (inactive) | GI50 (UACC-257): > 100 µM (inactive) | GI50 (HT-29): > 100 µM (inactive) | GI50 (SNB-19): > 100 µM (inactive) | GI50 (CCRF-CEM): > 100 µM (inactive) | GI50 (M14): 49.9 µM (inactive) | GI50 (UACC-62): > 100 µM (inactive) | GI50 (SW-620): > 100 µM (inactive) | GI50 (HCC 2998): > 100 µM (inactive) | GI50 (A549): > 100 µM (inactive) | GI50 (OVCAR-5): > 100 µM (inactive) | GI50 (OVCAR-4): > 100 µM (inactive) | GI50 (SK-MEL-28): > 100 µM (inactive) | GI50 (SR): 12.7 µM (inactive) | GI50 (UO-31): > 100 µM (inactive) | GI50 (A498): > 100 µM (inactive) | GI50 (COLO 205): > 100 µM (inactive) | GI50 (MDA-MB-231): > 100 µM (inactive) | GI50 (SF-268): > 100 µM (inactive) | GI50 (SN12C): > 100 µM (inactive) | GI50 (NCI-H522): > 100 µM (inactive) | GI50 (MOLT-4): 67 µM (inactive) | GI50 (NCI-H23): > 100 µM (inactive) | GI50 (K562): 44.5 µM (inactive) | GI50 (RPMI-8226): > 100 µM (inactive) | GI50 (786-0): > 100 µM (inactive) | GI50 (TK-10): > 100 µM (inactive) | GI50 (MCF7): > 100 µM (inactive) | GI50 (MDA-MB-435): 82.4 µM (inactive) | GI50 (NCI-H226): > 100 µM (inactive) | GI50 (NCI-H460): > 100 µM (inactive) | GI50 (NCI/ADR-RES): > 100 µM (inactive) | GI50 (Malme-3M): 40 µM (inactive) | GI50 (HCT-15): > 100 µM | GI50 (OVCAR-8): > 100 µM (inactive) | GI50 (HCT-116): > 100 µM (inactive) | GI50 (LOX IMVI): > 100 µM (inactive)

COc1ccc(C(=O)/C=C/c2ccc(OCC(=O)N3CCN(c4ccccc4)CC3)cc2)cc1OC
GI50 (MDA-N): 3.21 µM (inactive) | GI50 (SK-MEL-5): 4.52 µM (inactive) | GI50 (KM12): 4.15 µM (inactive) | GI50 (SK-OV-3): 6.07 µM (inactive) | GI50 (IGROV-1): 9.38 µM (inactive) | GI50 (DU-145): 1.42 µM (inactive) | GI50 (SF-295): 6.3 µM (inactive) | GI50 (T47D): 5.89 µM (inactive) | GI50 (RXF 393): 1.83 µM (inactive) | GI50 (CAKI-1): 5.28 µM (inactive) | GI50 (PC-3): 3.56 µM (inactive) | GI50 (UACC-257): 3.37 µM (inactive) | GI50 (HT-29): 4.07 µM (inactive) | GI50 (HOP-62): 4.46 µM (inactive) | GI50 (CCRF-CEM): 2.52 µM (inactive) | GI50 (M14): 6.28 µM (inactive) | GI50 (UACC-62): 5.58 µM (inactive) | GI50 (SW-620): 5.73 µM (inactive) | GI50 (HCC 2998): 5.3 µM (inactive) | GI50 (HL-60): 2.88 µM (inactive) | GI50 (A549): 5.36 µM (inactive) | GI50 (SNB-75): 3.72 µM (inactive) | GI50 (EKVX): 7.01 µM (inactive) | GI50 (SK-MEL-28): 6.68 µM (inactive) | GI50 (SR): 2.18 µM (inactive) | GI50 (COLO 205): > 10 µM (inactive) | GI50 (MDA-MB-231): 4.69 µM (inactive) | GI50 (SF-268): 3.39 µM (inactive) | GI50 (SN12C): 4.82 µM (inactive) | GI50 (MOLT-4): 2.34 µM (inactive) | GI50 (NCI-H23): 2.05 µM (inactive) | GI50 (K562): 3.14 µM (inactive) | GI50 (RPMI-8226): 3.33 µM (inactive) | GI50 (786-0): 5.31 µM (inactive) | GI50 (TK-10): > 10 µM (inactive) | GI50 (MCF7): 2.9 µM (inactive) | GI50 (Malme-3M): 5.96 µM (inactive) | GI50 (HCT-15): 4.84 µM | GI50 (OVCAR-8): 4.29 µM (inactive)

COc1cc([C@@H]2c3cc4c(cc3[C@@H](Nc3ccc(NC(=O)c5cc([N+](=O)[O-])cn5C)cc3)[C@H]3COC(=O)[C@H]23)OCO4)cc(OC)c1O
GI50 (SK-MEL-2): 1.21 µM (inactive) | GI50 (KM12): 0.22 µM (active) | GI50 (IGROV-1): 0.173 µM (active) | GI50 (DU-145): 0.0143 µM (active) | GI50 (ACHN): 0.0213 µM (active) | GI50 (T47D): 0.0266 µM (active) | GI50 (RXF 393): 0.243 µM (active) | GI50 (HOP-92): 0.132 µM (active) | GI50 (PC-3): 0.188 µM (active) | GI50 (SF-539): 0.0577 µM (active) | GI50 (UACC-257): 0.581 µM (active) | GI50 (HT-29): 0.171 µM (active) | GI50 (HOP-62): 0.0179 µM (active) | GI50 (SNB-19): 0.0538 µM (active) | GI50 (CCRF-CEM): < 0.01 µM (active) | GI50 (M14): 0.0731 µM (active) | GI50 (UACC-62): 0.0828 µM (active) | GI50 (SW-620): 0.135 µM (active) | GI50 (HCC 2998): 0.243 µM (active) | GI50 (HL-60): 0.0176 µM (active) | GI50 (OVCAR-3): 0.427 µM (active) | GI50 (A549): < 0.0124 µM (active) | GI50 (OVCAR-5): 0.419 µM (active) | GI50 (SNB-75): 0.0498 µM (active) | GI50 (EKVX): 0.333 µM (active) | GI50 (SK-MEL-28): 1.22 µM (inactive) | GI50 (UO-31): 0.244 µM (active) | GI50 (COLO 205): 0.254 µM (active) | GI50 (SF-268): 0.191 µM (active) | GI50 (NCI-H522): 0.272 µM (active) | GI50 (MOLT-4): < 0.01 µM (active) | GI50 (NCI-H23): 0.0385 µM (active) | GI50 (K562): 0.108 µM (active) | GI50 (786-0): 0.0491 µM (active) | GI50 (TK-10): 0.348 µM (active) | GI50 (MCF7): < 0.01 µM (active) | GI50 (NCI-H460): < 0.01 µM (active) | GI50 (HCT-15): 0.365 µM | GI50 (OVCAR-8): 0.141 µM (active) | GI50 (HCT-116): 0.114 µM (active)

COc1cc2nc(N3CCN(C(=O)c4ccco4)CC3)nc(N)c2cc1OC [PRAZOSIN HYDROCHLORIDE]
GI50 (NCI-H23): 13.7 µM (inactive)

CCN(CC)CCC/N=c1\c2cc(OC)ccc2[nH]c2c([N+](=O)[O-])ccc(NCCCN(CC)CC)c12
GI50 (MDA-N): 5.77 µM (inactive) | GI50 (SK-MEL-5): 9.42 µM (inactive) | GI50 (KM12): 1.52 µM (inactive) | GI50 (SK-OV-3): 3.08 µM (inactive) | GI50 (IGROV-1): 3.42 µM (inactive) | GI50 (DU-145): 5.13 µM (inactive) | GI50 (T47D): > 10 µM (inactive) | GI50 (RXF 393): 1.95 µM (inactive) | GI50 (CAKI-1): 9.66 µM (inactive) | GI50 (PC-3): 1.47 µM (inactive) | GI50 (UACC-257): > 10 µM (inactive) | GI50 (HT-29): 1.6 µM (inactive) | GI50 (HOP-62): 4.47 µM (inactive) | GI50 (CCRF-CEM): 0.479 µM (active) | GI50 (M14): > 10 µM (inactive) | GI50 (UACC-62): > 10 µM (inactive) | GI50 (SW-620): 1.69 µM (inactive) | GI50 (HCC 2998): 1.49 µM (inactive) | GI50 (HL-60): 0.3 µM (active) | GI50 (A549): 1.78 µM (inactive) | GI50 (SNB-75): > 10 µM (inactive) | GI50 (EKVX): 3.97 µM (inactive) | GI50 (SK-MEL-28): > 10 µM (inactive) | GI50 (COLO 205): 5.13 µM (inactive) | GI50 (MDA-MB-231): 1.49 µM (inactive) | GI50 (SF-268): 2.87 µM (inactive) | GI50 (SN12C): 2.04 µM (inactive) | GI50 (MOLT-4): 0.484 µM (active) | GI50 (NCI-H23): 2.26 µM (inactive) | GI50 (K562): 1.77 µM (inactive) | GI50 (RPMI-8226): 1.72 µM (inactive) | GI50 (786-0): 1.45 µM (inactive) | GI50 (TK-10): 8.24 µM (inactive) | GI50 (MCF7): 1.54 µM (inactive) | GI50 (Malme-3M): > 10 µM (inactive) | GI50 (HCT-15): 1.43 µM | GI50 (OVCAR-8): 1.03 µM (active) | GI50 (LOX IMVI): 1.34 µM (inactive)
